Where two headings read alike, the source gives them in different places.

The target in test [1] is human SOS1 (nucleotide exchange of K-Ras^G12C) (Homo sapiens, UniProt Q07889). The test can be described thus: Biochemical assay 2: K-Ras^G12C activation assay by hSOS1 at high GTP concentration (HTRF). The following applies: high GTP; for IC50: read-out: Assay 2 (KRAS-Activation by SOS high GTP) activity expressed as IC50. Background: TR-FRET usually uses a lanthanide donor and a delayed reading to cut background.

In test [2] the target is Epidermal Growth Factor Receptor (EGFR) (Homo sapiens (Human), UniProt P00533). The test can be described thus: EGFR kinase assay (TR-FRET). The format is biochemical. The settings on record: read-out: EGFR kinase inhibition IC50. The procedure, abridged: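 EGFR purified from A431 cells was preincubated with compound 15 min at 22° C in pH 7.0 Hepes buffer with MgCl2, MnCl2 and vanadate before reaction with a biotinylated peptide. After EDTA stop, phosphopeptide was detected by TR-FRET (anti-phosphotyrosine Tb-cryptate, streptavidin-XL665) as the 665/620 nm emission ratio.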
Epidermal Growth Factor Receptor (EGFR), sequence (P00533 25-1210): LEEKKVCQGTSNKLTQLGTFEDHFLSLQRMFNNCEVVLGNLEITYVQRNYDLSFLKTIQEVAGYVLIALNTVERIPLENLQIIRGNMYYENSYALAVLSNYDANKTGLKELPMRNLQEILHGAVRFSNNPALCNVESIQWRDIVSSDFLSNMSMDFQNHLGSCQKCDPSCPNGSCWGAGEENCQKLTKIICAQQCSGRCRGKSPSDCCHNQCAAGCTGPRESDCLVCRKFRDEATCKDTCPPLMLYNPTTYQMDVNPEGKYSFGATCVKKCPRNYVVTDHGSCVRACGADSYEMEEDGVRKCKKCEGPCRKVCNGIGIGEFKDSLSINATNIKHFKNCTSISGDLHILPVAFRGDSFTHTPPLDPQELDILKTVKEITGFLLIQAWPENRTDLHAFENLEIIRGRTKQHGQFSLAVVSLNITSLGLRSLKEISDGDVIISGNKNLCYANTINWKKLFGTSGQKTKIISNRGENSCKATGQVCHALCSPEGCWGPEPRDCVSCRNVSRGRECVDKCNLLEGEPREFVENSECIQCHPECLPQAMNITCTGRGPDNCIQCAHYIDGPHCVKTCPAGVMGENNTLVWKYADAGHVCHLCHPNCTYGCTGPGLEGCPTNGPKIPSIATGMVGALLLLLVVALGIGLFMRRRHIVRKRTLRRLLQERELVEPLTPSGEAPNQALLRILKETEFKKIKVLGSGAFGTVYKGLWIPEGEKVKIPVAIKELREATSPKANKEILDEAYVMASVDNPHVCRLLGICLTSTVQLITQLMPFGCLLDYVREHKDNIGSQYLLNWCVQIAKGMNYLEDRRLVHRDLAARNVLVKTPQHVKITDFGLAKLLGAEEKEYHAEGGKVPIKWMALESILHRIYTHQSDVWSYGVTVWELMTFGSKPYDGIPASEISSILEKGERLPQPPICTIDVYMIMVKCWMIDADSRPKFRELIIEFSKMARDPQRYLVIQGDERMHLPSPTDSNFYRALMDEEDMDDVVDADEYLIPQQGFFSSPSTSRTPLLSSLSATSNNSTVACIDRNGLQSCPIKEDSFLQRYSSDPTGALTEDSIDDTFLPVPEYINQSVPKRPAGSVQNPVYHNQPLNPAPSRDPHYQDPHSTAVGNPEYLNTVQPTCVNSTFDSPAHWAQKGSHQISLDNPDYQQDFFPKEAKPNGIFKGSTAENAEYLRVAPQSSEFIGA

Regarding `COc1cc2nc(C)nc(N[C@H](C)c3ccc(-c4ccccc4CCN)s3)c2cc1OC` (stereo in doubt) [Example 357, N-[1-{5-[2-(2-aminoethyl)phenyl]thiophen-2-yl}ethyl]-6,7-dimethoxy-2-methylquinazolin-4-amine], the half-inhibitory concentration (IC50) (commonly the concentration at which inhibition is half-maximal) in test [1] is 0.0488 µM; in test [2] (values given in μM), greater than 20 µM.
For `COc1cc2nc(C)nc(NC(C)c3ccc(-c4ccccc4[C@@H](C)NC(=O)OC(C)(C)C)s3)c2cc1OC` (stereo in doubt) [Example 358, tert-butyl {1-[2-(5-{1-[(6,7-dimethoxy-2-methylquinazolin-4-yl)amino]ethyl}thiophen-2-yl)phenyl]ethyl}carbamate], in that order: 1.53 µM and greater than 20 µM.
In the case of `COc1cc2nc(C)nc(NC(C)c3ccc(-c4ccccc4[C@@H](C)N)s3)c2cc1OC` (stereo in doubt) [Example 359, N-[1-(5-{2-[1-aminoethyl]phenyl}thiophen-2-yl)ethyl]-6,7-dimethoxy-2-methylquinazolin-4-amine], the IC50 in test [1] is 0.2 µM; in test [2] (values given in μM), greater than 20 µM.
Take `COc1cc2nc(C)nc(NC(C)c3ccc(-c4ccccc4[C@H](C)N)s3)c2cc1OC` (stereo in doubt) [Example 360, N-[1-(5-{2-[1-aminoethyl]phenyl}thiophen-2-yl)ethyl]-6,7-dimethoxy-2-methylquinazolin-4-amine]: the 50% inhibitory concentration (IC50) is 0.141 µM in test [1] and greater than 20 µM in test [2] (values given in μM).
With `COc1cc2nc(C)nc(NC(C)c3cccc4c3CCO4)c2cc1OC` (stereo not drawn) [Example 22, N-[1-(2,3-dihydro-1-benzofuran-4-yl)ethyl]-6,7-dimethoxy-2-methylquinazolin-4-amine], the half-maximal inhibitory concentration (IC50) is 0.219 µM in test [1] and greater than 20 µM in test [2] (values given in μM).
For `COc1cc2nc(C)nc(NC(C)c3ccc4c(c3)OCO4)c2cc1OC` (stereo not drawn) [Example 23, N-[1-(1,3-benzodioxol-5-yl)ethyl]-6,7-dimethoxy-2-methylquinazolin-4-amine], in that order: 1.85 µM and greater than 20 µM.
On to `COc1cc2nc(C)nc(NC(C)c3ccc4c(c3)CCO4)c2cc1OC` (stereo not drawn) [Example 24, N-[1-(2,3-dihydro-1-benzofuran-5-yl)ethyl]-6,7-dimethoxy-2-methylquinazolin-4-amine], for which the results for the IC50 in test [1] and in test [2] (values given in μM) were 1.22 µM and greater than 20 µM, respectively.
For `COc1cc2nc(C)nc(NC(C)c3ccc4c(c3)CCCC4)c2cc1OC` (stereo not drawn) [Example 25, 6,7-dimethoxy-2-methyl-N-[1-(5,6,7,8-tetrahydronaphthalen-2-yl)ethyl]quinazolin-4-amine] the same measures were 0.85 µM and greater than 20 µM.
Regarding `COc1cc2nc(C)nc(NC(C)c3c(C)nc4ccccn34)c2cc1OC` (stereo not drawn) [Example 26, 6,7-dimethoxy-2-methyl-N-[1-(2-methylimidazo[1,2-a]pyridin-3-yl)ethyl]quinazolin-4-amine], the inhibition (commonly the relative decrease from the control value, in per cent) at 20 µM in test [1] (read-out: Assay 2 (KRAS-Activation by SOS high GTP) activity expressed as % inhibition at 20 μM, at 20 μM) came to 52%. Moreover, the half-inhibitory concentration (IC50) in test [2] (values given in μM) is greater than 20 µM.
As to `COc1cc2nc(C)nc(NC(C)c3csc4ccccc34)c2cc1OC` (stereo not drawn) [Example 27, N-[1-(1-benzothiophen-3-yl)ethyl]-6,7-dimethoxy-2-methylquinazolin-4-amine], the IC50 in test [1] was 0.402 µM; in test [2] (values given in μM), greater than 20 µM.
`Cc1nc(N[C@H](C)c2ccccc2)c2cc(N=S(C)(C)=O)ccc2n1` [Example 30, 6-{[dimethyl(oxido)-lambda6-sulfanylidene]amino}-2-methyl-N-[(1R)-1-phenylethyl]quinazolin-4-amine]: the IC50 in test [1] was 1.1 µM; in test [2] (values given in μM), greater than 20 µM.
For `Cc1nc(N[C@H](C)c2ccc(F)cc2)c2cc(N=S(C)(C)=O)ccc2n1` [Example 32, 6-{[dimethyl(oxido)-lambda6-sulfanylidene]amino}-N-[(1R)-1-(4-fluorophenyl)ethyl]-2-methylquinazolin-4-amine], in that order: 1.4 µM and greater than 20 µM.
On to `COc1cc2nc(C)nc(NC(C)c3ccc4c(c3)NC(=O)CO4)c2cc1OC` (stereo not drawn) [Example 34, 6-{1-[(6,7-dimethoxy-2-methylquinazolin-4-yl)amino]ethyl}-2H-1,4-benzoxazin-3(4H)-one], for which the half-maximal inhibitory concentration (IC50) in test [1] was 3.71 µM; in test [2] (values given in μM) it was greater than 20 µM.
On to `COc1ccc2cc(C(C)Nc3nc(C)nc4cc(OC)c(OC)cc34)ccc2c1` (stereo not drawn) [Example 35, 6,7-dimethoxy-N-[1-(6-methoxy-2-naphthyl)ethyl]-2-methylquinazolin-4-amine], for which the IC50 in test [1] was 4.78 µM; in test [2] (values given in μM) it was greater than 20 µM.
For the compound `COc1cc2nc(C)nc(N[C@H](C)c3cccc(-c4ccc(O)nc4)c3)c2cc1OC` [Example 68, 5-(3-{(1R)-1-[(6,7-dimethoxy-2-methylquinazolin-4-yl)amino]ethyl}phenyl)pyridin-2-ol], the figures for the 50% inhibitory concentration (IC50) in test [1] and in test [2] (unit inferred) were 0.486 µM and 6.92 µM, respectively.
Take `COc1cc2nc(C)nc(N[C@H](C)c3cccc(-n4cccn4)c3)c2cc1OC` [Example 341, 6,7-dimethoxy-2-methyl-N-{(1R)-1-[3-(1H-pyrazol-1-yl)phenyl]ethyl}quinazolin-4-amine]: the 50% inhibitory concentration (IC50) in test [1] was 3.73 µM; in test [2] (values given in μM) it was greater than 20 µM.
As for `COc1cc2nc(C)nc(N[C@H](C)c3cccc(Br)c3)c2cc1OCc1ccccc1` [Example 343, 6-(benzyloxy)-N-[(1R)-1-(3-bromophenyl)ethyl]-7-methoxy-2-methylquinazolin-4-amine], the half-maximal inhibitory concentration (IC50) was 1.61 µM in test [1] and greater than 20 µM in test [2] (values given in μM).
`COc1cc2nc(C)nc(N[C@H](C)c3cccc(-c4cn[nH]c4)c3)c2cc1OCc1ccccc1` [Example 344, 6-(benzyloxy)-7-methoxy-2-methyl-N-{(1R)-1-[3-(1H-pyrazol-4-yl)phenyl]ethyl}-quinazolin-4-amine]: the figures for the IC50 in test [1] and in test [2] (values given in μM) were 1.19 µM and greater than 20 µM, respectively.
Consider `COc1cc2nc(C)nc(N[C@H](C)c3cccc(-c4cn[nH]c4)c3)c2cc1O` [Example 345, 7-methoxy-2-methyl-4-({(1R)-1-[3-(1H-pyrazol-4-yl)phenyl]ethyl}amino)quinazolin-6-ol], for which the IC50 in test [1] was 7.84 µM; in test [2] (values given in μM), greater than 20 µM.
For `COc1cc2nc(C)nc(N[C@H](C)c3cccc(-c4cn[nH]c4)c3)c2cc1OCC1CC1` [Example 346, 6-(cyclopropylmethoxy)-7-methoxy-2-methyl-N-{(1R)-1-[3-(1H-pyrazol-4-yl)phenyl]ethyl}quinazolin-4-amine], in that order: 0.395 µM and greater than 20 µM.
For `COCCOc1cc2c(N[C@H](C)c3cccc(-c4cn[nH]c4)c3)nc(C)nc2cc1OC` [Example 348, 7-methoxy-6-(2-methoxyethoxy)-2-methyl-N-{(1R)-1-[3-(1H-pyrazol-4-yl)phenyl]-ethyl}quinazolin-4-amine] the same measures were 0.816 µM and greater than 20 µM.
Turning to `CC[C@@H](O)c1ccccc1-c1ccc(C(C)Nc2nc(C)nc3cc(OC)c(OC)cc23)s1` (stereo partly drawn) [Example 349, (1R)-1-[2-(5-{1-[(6,7-dimethoxy-2-methylquinazolin-4-yl)amino]ethyl}thiophen-2-yl)phenyl]propan-1-ol], the IC50 is 0.649 µM in test [1] and greater than 20 µM in test [2] (values given in μM).
For `CCCCOc1cc2c(N[C@H](C)c3cccc(-c4cn[nH]c4)c3)nc(C)nc2cc1OC` [Example 350, 6-butoxy-7-methoxy-2-methyl-N-{(1R)-1-[3-(1H-pyrazol-4-yl)phenyl]ethyl}quinazolin-4-amine] the same measures were 0.736 µM and greater than 20 µM.
Consider `COc1cc2nc(C)nc(N[C@H](C)c3cccc(-c4cn[nH]c4)c3)c2cc1OCCC(C)C` [Example 351, 7-methoxy-2-methyl-6-(3-methylbutoxy)-N-{(1R)-1-[3-(1H-pyrazol-4-yl)phenyl]ethyl}quinazolin-4-amine], for which the IC50 was 1.2 µM in test [1] and greater than 20 µM in test [2] (values given in μM).
With `COc1cc2nc(C)nc(NC(C)c3ccc(-c4ccccc4CCNC(=O)OC(C)(C)C)s3)c2cc1OC` (stereo not drawn) [Example 352, tert-butyl {2-[2-(5-{1-[(6,7-dimethoxy-2-methylquinazolin-4-yl)amino]ethyl}thiophen-2-yl)phenyl]ethyl}carbamate], the half-maximal inhibitory concentration (IC50) is 12.2 µM in test [1] and greater than 20 µM in test [2] (values given in μM).
For `COc1cc2nc(C)nc(N[C@H](C)c3cccc(-c4cn[nH]c4)c3)c2cc1OC(C)C` [Example 353, 7-methoxy-2-methyl-6-(propan-2-yloxy)-N-{(1R)-1-[3-(1H-pyrazol-4-yl)phenyl]ethyl}quinazolin-4-amine] the same measures were 0.42 µM and greater than 20 µM.
For `COc1cc2nc(C)nc(N[C@H](C)c3cccc(-c4cn[nH]c4)c3)c2cc1OCC1COC1` [Example 354, 7-methoxy-2-methyl-6-(oxetan-3-ylmethoxy)-N-{(1R)-1-[3-(1H-pyrazol-4-yl)phenyl]ethyl}quinazolin-4-amine] the same measures were 0.516 µM and greater than 20 µM.
For `CCOc1cc2c(N[C@H](C)c3cccc(-c4cn[nH]c4)c3)nc(C)nc2cc1OC` [Example 355, 6-Ethoxy-7-methoxy-2-methyl-N-{(1R)-1-[3-(1H-pyrazol-4-yl)phenyl]ethyl}-quinazolin-4-amine] the same measures were 0.571 µM and greater than 20 µM.
Consider `CCOc1cc2c(N[C@H](C)c3cccc(-c4cnn(CC)c4)c3)nc(C)nc2cc1OC` [Example 356, 6-ethoxy-N-{(1R)-1-[3-(1-ethyl-1H-pyrazol-4-yl)phenyl]ethyl}-7-methoxy-2-methylquinazolin-4-amine], for which the figures for the IC50 in test [1] and in test [2] (values given in μM) were 0.777 µM and greater than 20 µM, respectively.
For `COc1cc2nc(C)nc(NC(C)c3ccc(-c4ccccc4-c4cn[nH]c4)s3)c2cc1OC` (stereo not drawn) [Example 361, 6,7-dimethoxy-2-methyl-N-[1-{5-[2-(1H-pyrazol-4-yl)phenyl]thiophen-2-yl}ethyl]-quinazolin-4-amine], in that order: 4.05 µM and greater than 20 µM.

These data come from US20240083857A1, “2-Methyl-Quinazolines” (Bayer Pharma Aktiengesellschaft, priority 2017, published 2024).
